Reference: patent publication US20110201818A1, “POLO-LIKE KINASE INHIBITORS” (TAKEDA PHARMACEUTICAL COMPANY LIMITED, priority 2007, published 2011)

Biological target: T1, human PLK1 (Homo sapiens, UniProt P53350)
T1 construct: FLAG (DYKDDDDK) (N); made in house; host or cells: Sf21 insect cells, recombinant baculovirus (pFASTBAC1, Bac-to-Bac)
Assay: PLK1 in vitro enzymatic activity assay (phosphorylation of alpha casein by recombinant PLK1)
Format: biochemical
Settings: recombinant FLAG-tagged PLK1, alpha casein substrate, 500 nmol/L ATP, 40 min at room temperature; read-out: pIC50 (PLK1) (converted)
Description: PCR was performed using the vector as a template. […] After XbaI and XhoI digestion of the PCR product, the fragment was subcloned into pFASTBAC1 (Invitrogen, USA). Recombinant baculoviruses were prepared according to the procedure of the Bac-to-Bac baculovirus expression system (Invitrogen, USA). Sf21 cells were purchased from Invitrogen and grown in Sf-900 II SFM medium containing 10% fetal bovine serum, 50 μg/mL gentamicin and 0.1% pluronic F-68 (Invitrogen, USA) at 28° C. For preparation of PLK1 enzyme, Sf21 cells were infected with recombinant baculoviruses and cultured at 28° C. for 72 h.
The inhibition of PLK1 by the compounds was determined with the following assay that measures the phosphorylation of alpha casein by recombinant PLK1. Kinase reactions were performed at room temperature for 40 min in the kinase reaction buffer (25 mmol/L HEPES, pH 7.5, 10 mmol/L magnesium acetate, 1 mmol/L dithiothreitol) containing 50 ng PLK1 enzyme, 0.1 μCi [γ-^32P]ATP, 500 nmol/L ATP and 3 μg alpha casein (MP Biomedicals Inc., USA) in a final volume of 50 μL. The incubation was terminated by the addition of 10% trichloroacetic acid (Wako, Japan). Phosphorylated proteins were filtrated in GF/C filter plates (Packard, USA) with a Cell harvester (Packard, USA) and washed out free [γ-^32P]-ATP with 250 mmol/L phosphoric acid. Then, the plates were air dried for 60 min at 45° C., followed by the addition of 20 μL of MicroScint-O (Packard, USA). The radioactivity was counted by a Top-count scintillation counter (Packard, USA).

T1 sequence (P53350 with tags, fused parts or gaps): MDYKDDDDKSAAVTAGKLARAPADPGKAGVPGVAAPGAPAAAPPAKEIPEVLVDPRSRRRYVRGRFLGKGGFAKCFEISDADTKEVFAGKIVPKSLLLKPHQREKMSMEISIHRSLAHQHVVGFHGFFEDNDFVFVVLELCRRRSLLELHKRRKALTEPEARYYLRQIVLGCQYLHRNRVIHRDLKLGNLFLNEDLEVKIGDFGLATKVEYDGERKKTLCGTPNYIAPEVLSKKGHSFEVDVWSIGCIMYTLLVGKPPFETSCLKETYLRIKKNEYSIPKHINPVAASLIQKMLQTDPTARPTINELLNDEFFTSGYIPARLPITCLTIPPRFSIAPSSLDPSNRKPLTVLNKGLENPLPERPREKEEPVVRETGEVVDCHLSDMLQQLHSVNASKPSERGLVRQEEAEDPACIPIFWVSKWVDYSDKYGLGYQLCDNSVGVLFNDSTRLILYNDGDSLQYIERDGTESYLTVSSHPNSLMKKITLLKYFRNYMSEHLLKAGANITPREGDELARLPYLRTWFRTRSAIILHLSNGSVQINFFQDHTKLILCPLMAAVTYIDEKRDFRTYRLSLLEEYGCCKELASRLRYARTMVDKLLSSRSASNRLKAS

| Structure (SMILES) | IC50 [nM] |
| --- | --- |
| COc1cc(C(=O)O)c(F)cc1Nc1ncc2c(n1)N(C1CCCC1)CC(F)(F)C(=O)N2C [Compound 31, 4-(9-Cyclopentyl-7,7-difluoro-5-methyl-6-oxo-6,7,8,9-tetrahydro-5H-pyrimido[4,5-b][1,4]diazepin-2-ylamino)-2-fluoro-5-methoxybenzoic acid] | ≤ 2 |
| COc1cc(C(=O)NC2CCN(C)CC2)ccc1Nc1ncc2c(n1)N(C1CCCCC1)CC(F)(F)C(=O)N2C [Compound 33, 4-(9-cyclohexyl-7,7-difluoro-5-methyl-6-oxo-6,7,8,9-tetrahydro-5H-pyrimido[4,5-b][1,4]diazepin-2-ylamino)-3-methoxy-N-(1-methylpiperidin-4-yl)benzamide] | ≤ 2 |
| COc1cc(C(=O)NN2CCN(C)CC2)ccc1Nc1ncc2c(n1)N(C1CCCCC1)CC(F)(F)C(=O)N2C [Compound 34, 4-(9-cyclohexyl-7,7-difluoro-5-methyl-6-oxo-6,7,8,9-tetrahydro-5H-pyrimido[4,5-b][1,4]diazepin-2-ylamino)-3-methoxy-N-(4-methylpiperazin-1-yl)benzamide] | ≤ 2 |
| COc1cc(C(=O)NC2CN(C)C2)ccc1Nc1ncc2c(n1)N(C1CCCCC1)CC(F)(F)C(=O)N2C [Compound 35, 4-(9-Cyclohexyl-7,7-difluoro-5-methyl-6-oxo-6,7,8,9-tetrahydro-5H-pyrimido[4,5-b][1,4]diazepin-2-ylamino)-3-methoxy-N-(1-methylazetidin-3-yl)benzamide] | ≤ 2 |
| CCN1CCC(NC(=O)c2ccc(Nc3ncc4c(n3)N(C3CCCCC3)CC(F)(F)C(=O)N4C)c(OC)c2)CC1 [Compound 36, 4-(9-cyclohexyl-7,7-difluoro-5-methyl-6-oxo-6,7,8,9-tetrahydro-5H-pyrimido[4,5-b][1,4]diazepin-2-ylamino)-N-(1-ethylpiperidin-4-yl)-3-methoxybenzamide] | ≤ 2 |
| COc1cc(C(=O)N[C@H]2CCCNC2)ccc1Nc1ncc2c(n1)N(C1CCCCC1)CC(F)(F)C(=O)N2C [Compound 37, (S)-4-(9-cyclohexyl-7,7-difluoro-5-methyl-6-oxo-6,7,8,9-tetrahydro-5H-pyrimido[4,5-b][1,4]diazepin-2-ylamino)-3-methoxy-N-(piperidin-3-yl)benzamide] | > 2 |
| COc1cc(C(=O)N[C@@H]2CCCNC2)ccc1Nc1ncc2c(n1)N(C1CCCCC1)CC(F)(F)C(=O)N2C [Compound 38, (R)-4-(9-cyclohexyl-7,7-difluoro-5-methyl-6-oxo-6,7,8,9-tetrahydro-5H-pyrimido[4,5-b][1,4]diazepin-2-ylamino)-3-methoxy-N-(piperidin-3-yl)benzamide] | ≤ 2 |
| COc1cc(C(=O)N[C@H]2CC[C@H](O)CC2)ccc1Nc1ncc2c(n1)N(C1CCCCC1)CC(F)(F)C(=O)N2C [Compound 40, 4-(9-cyclohexyl-7,7-difluoro-5-methyl-6-oxo-6,7,8,9-tetrahydro-5H-pyrimido[4,5-b][1,4]diazepin-2-ylamino)-N-((1r,4r)-4-hydroxycyclohexyl)-3-methoxybenzamide] | ≤ 2 |
| COc1cc(C(=O)N[C@H]2CC[C@H](OP(=O)(O)O)CC2)ccc1Nc1ncc2c(n1)N(C1CCCCC1)CC(F)(F)C(=O)N2C [Compound 41, (1R,4R)-4-(4-(9-cyclohexyl-7,7-difluoro-5-methyl-6-oxo-6,7,8,9-tetrahydro-5H-pyrimido[4,5-b][1,4]diazepin-2-ylamino)-3-methoxybenzamido)cyclohexyl dihydrogen phosphate] | ≤ 2 |
| COc1cc(C(=O)NC2CCCNCC2)ccc1Nc1ncc2c(n1)N(C1CCCCC1)CC(F)(F)C(=O)N2C (stereo not drawn) [Compound 42, N-(azepan-4-yl)-4-(9-cyclohexyl-7,7-difluoro-5-methyl-6-oxo-6,7,8,9-tetrahydro-5H-pyrimido[4,5-b][1,4]diazepin-2-ylamino)-3-methoxybenzamide] | ≤ 2 |
| COc1cc(C(=O)NC2CNC2)ccc1Nc1ncc2c(n1)N(C1CCCCC1)CC(F)(F)C(=O)N2C [Compound 43, N-(azetidin-3-yl)-4-(9-cyclohexyl-7,7-difluoro-5-methyl-6-oxo-6,7,8,9-tetrahydro-5H-pyrimido[4,5-b][1,4]diazepin-2-ylamino)-3-methoxybenzamide] | ≤ 2 |
| COc1cc(C(=O)NC2CCN(CCO)CC2)ccc1Nc1ncc2c(n1)N(C1CCCCC1)CC(F)(F)C(=O)N2C [Compound 44, 4-(9-cyclohexyl-7,7-difluoro-5-methyl-6-oxo-6,7,8,9-tetrahydro-5H-pyrimido[4,5-b][1,4]diazepin-2-ylamino)-N-(1-(2-hydroxyethyl)piperidin-4-yl)-3-methoxybenzamide] | ≤ 2 |
| COc1cc(C(=O)N[C@H]2CN3CCC2CC3)ccc1Nc1ncc2c(n1)N(C1CCCCC1)CC(F)(F)C(=O)N2C [Compound 45, (R)-4-(9-cyclohexyl-7,7-difluoro-5-methyl-6-oxo-6,7,8,9-tetrahydro-5H-pyrimido[4,5-b][1,4]diazepin-2-ylamino)-3-methoxy-N-(quinuclidin-3-yl)benzamide] | ≤ 2 |
| COc1cc(C(=O)N[C@@H]2CN3CCC2CC3)ccc1Nc1ncc2c(n1)N(C1CCCCC1)CC(F)(F)C(=O)N2C [Compound 46, (S)-4-(9-cyclohexyl-7,7-difluoro-5-methyl-6-oxo-6,7,8,9-tetrahydro-5H-pyrimido[4,5-b][1,4]diazepin-2-ylamino)-3-methoxy-N-(quinuclidin-3-yl)benzamide] | > 2 |
| COc1cc(C(=O)NC2CC3CCC(C2)N3C)ccc1Nc1ncc2c(n1)N(C1CCCCC1)CC(F)(F)C(=O)N2C (stereo not drawn) [Compound 51, 4-(9-cyclohexyl-7,7-difluoro-5-methyl-6-oxo-6,7,8,9-tetrahydro-5H-pyrimido[4,5-b][1,4]diazepin-2-ylamino)-3-methoxy-N-(8-methyl-8-azabicyclo[3.2.1]octan-3-yl)benzamide] | ≤ 2 |
| COc1cc(C(=O)NCCCN(C)C)ccc1Nc1ncc2c(n1)N(C1CCCCC1)CC(F)(F)C(=O)N2C [Compound 54, 4-(9-cyclohexyl-7,7-difluoro-5-methyl-6-oxo-6,7,8,9-tetrahydro-5H-pyrimido[4,5-b][1,4]diazepin-2-ylamino)-N-(3-(dimethylamino)propyl)-3-methoxybenzamide] | > 2 |
| COc1cc(C(=O)NCCN2CCCC2)ccc1Nc1ncc2c(n1)N(C1CCCCC1)CC(F)(F)C(=O)N2C [Compound 56, 4-(9-cyclohexyl-7,7-difluoro-5-methyl-6-oxo-6,7,8,9-tetrahydro-5H-pyrimido[4,5-b][1,4]diazepin-2-ylamino)-3-methoxy-N-(2-(pyrrolidin-1-yl)ethyl)benzamide] | > 2 |
| COc1cc(C(=O)N2CCN(C)CC2)ccc1Nc1ncc2c(n1)N(C1CCCCC1)CC(F)(F)C(=O)N2C [Compound 57, 9-cyclohexyl-7,7-difluoro-2-(2-methoxy-4-(4-methylpiperazine-1-carbonyl)-phenylamino)-5-methyl-8,9-dihydro-5H-pyrimido[4,5-b][1,4]diazepin-6(7H)-one] | > 2 |
| COc1cc(C(N)=O)ccc1Nc1ncc2c(n1)N(C1CCCCC1)CC(F)(F)C(=O)N2C [Compound 58, 4-(9-cyclohexyl-7,7-difluoro-5-methyl-6-oxo-6,7,8,9-tetrahydro-5H-pyrimido[4,5-b][1,4]diazepin-2-ylamino)-3-methoxybenzamide] | ≤ 2 |
| CNC(=O)c1ccc(Nc2ncc3c(n2)N(C2CCCCC2)CC(F)(F)C(=O)N3C)c(OC)c1 [Compound 60, 4-(9-cyclohexyl-7,7-difluoro-5-methyl-6-oxo-6,7,8,9-tetrahydro-5H-pyrimido[4,5-b][1,4]diazepin-2-ylamino)-3-methoxy-N-methylbenzamide] | ≤ 2 |
| COc1cc(C(=O)NN(C)C)ccc1Nc1ncc2c(n1)N(C1CCCCC1)CC(F)(F)C(=O)N2C [Compound 61, 4-(9-cyclohexyl-7,7-difluoro-5-methyl-6-oxo-6,7,8,9-tetrahydro-5H-pyrimido[4,5-b][1,4]diazepin-2-ylamino)-3-methoxy-N′,N′-dimethylbenzohydrazide] | ≤ 2 |
| COc1cc(C(=O)NC[C@@H](C)O)ccc1Nc1ncc2c(n1)N(C1CCCCC1)CC(F)(F)C(=O)N2C [Compound 62, (R)-4-(9-cyclohexyl-7,7-difluoro-5-methyl-6-oxo-6,7,8,9-tetrahydro-5H-pyrimido[4,5-b][1,4]diazepin-2-ylamino)-N-(2-hydroxypropyl)-3-methoxybenzamide] | ≤ 2 |
| COc1cc(C(=O)NC[C@H](C)O)ccc1Nc1ncc2c(n1)N(C1CCCCC1)CC(F)(F)C(=O)N2C [Compound 63, (S)-4-(9-cyclohexyl-7,7-difluoro-5-methyl-6-oxo-6,7,8,9-tetrahydro-5H-pyrimido[4,5-b][1,4]diazepin-2-ylamino)-N-(2-hydroxypropyl)-3-methoxybenzamide] | ≤ 2 |
| COc1cc(C(=O)NN2CCCCC2)ccc1Nc1ncc2c(n1)N(C1CCCCC1)CC(F)(F)C(=O)N2C [Compound 64, 4-(9-cyclohexyl-7,7-difluoro-5-methyl-6-oxo-6,7,8,9-tetrahydro-5H-pyrimido[4,5-b][1,4]diazepin-2-ylamino)-3-methoxy-N-(piperidin-1-yl)benzamide] | ≤ 2 |
